This is an account of results in patent US11925643B2, “Toll-like receptor 4 (TLR4) inhibitors and use thereof” (MOR RESEARCH APPLICATIONS LTD., priority 2018, dated 2024).

For one assay, the system named is TLR4 mRNA. As to the kind of experiment: TLR4 mRNA level by RT-qPCR in hypoxic cardiomyocytes. As to conditions: hypoxic conditions. The class given is cell-based. As for the experimental part: Real-time RT-PCR experiments were performed in duplicates on an ABI 7900 instrument (Applied Biosystems™) using Taqman™ Master Mix (Applied Biosystems™). The average threshold cycles (Ct) of the duplicates were used to calculate the relative expression levels of the following genes: TLR4 (Applied Biosystems™ assay primer ID: Mm00569848_m1 Tlr4), TLR2 (assay primer ID: Mm01769726_m1 Tlr2), TNF-α (assay primer ID: Mm00443260_g1 Tnf) and IL-1β (assay primer ID: Mm00434228_m1 II1b) in vitro and in vivo following hypoxia or ischemia, respectively. The reference gene was TBP and the primer used was derived from mouse TATA-box binding protein (Applied Biosystems™ assay primer ID: Mm00446973_m1 Tbp). Amounts of TLR2, TLR4, TNF-α and IL-1β mRNAs in each sample were calculated relative to TBP mRNA, based on the corresponding Cts, as Relative Quantity (RQ) values, and normalized taking as 1 a randomly selected sample of the control group (TBP mRNA). Calculation were performed using the Applied Biosystems Analysis™ software (StepOnePlus V2.2.2). All mRNA scores are presented in arbitrary units.
Next, peptidomimetics of SEQ ID NOs:1 and 2 were tested for their ability to affect the expression of TLR4. The level of TLR4 mRNA was measured by real-time reverse transcriptase polymerase chain reaction (RT-qPCR) method as described in Materials and Methods. The possible effect of both compounds on expression levels of TLR2 mRNA was used as a negative control.
Background: Quantitative PCR measures a nucleic acid by following its amplification.

The next assay has as its target T1, TLR4 (Mus musculus, UniProt Q9QUK6).
T1 construct: endogenous in cells; host or cells: primary cardiomyocytes under hypoxia
T1 sequence (Q9QUK6 26-835): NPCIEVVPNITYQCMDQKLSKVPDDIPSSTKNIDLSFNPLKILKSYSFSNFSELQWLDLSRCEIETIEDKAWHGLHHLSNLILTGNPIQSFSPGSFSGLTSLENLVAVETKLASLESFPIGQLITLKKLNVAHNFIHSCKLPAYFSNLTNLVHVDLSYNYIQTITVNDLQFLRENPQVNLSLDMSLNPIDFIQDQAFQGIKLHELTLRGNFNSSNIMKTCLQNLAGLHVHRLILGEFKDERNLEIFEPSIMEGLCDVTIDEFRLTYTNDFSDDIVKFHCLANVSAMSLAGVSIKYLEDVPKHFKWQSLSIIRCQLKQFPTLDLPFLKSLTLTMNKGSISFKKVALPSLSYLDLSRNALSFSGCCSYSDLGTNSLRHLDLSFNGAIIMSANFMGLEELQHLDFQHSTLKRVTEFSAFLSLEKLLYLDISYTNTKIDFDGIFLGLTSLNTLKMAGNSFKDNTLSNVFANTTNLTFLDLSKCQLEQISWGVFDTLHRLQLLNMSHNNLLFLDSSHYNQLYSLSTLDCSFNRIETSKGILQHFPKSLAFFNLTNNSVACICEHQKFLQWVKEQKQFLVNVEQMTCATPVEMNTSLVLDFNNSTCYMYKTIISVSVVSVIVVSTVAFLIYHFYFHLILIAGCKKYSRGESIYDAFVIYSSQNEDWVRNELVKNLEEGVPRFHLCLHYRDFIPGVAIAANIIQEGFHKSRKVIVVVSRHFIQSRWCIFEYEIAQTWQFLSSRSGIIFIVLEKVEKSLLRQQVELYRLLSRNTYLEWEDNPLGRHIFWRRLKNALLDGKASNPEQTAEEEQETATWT
As to the kind of experiment: TLR4 protein level by Western blot in hypoxic cardiomyocytes. In kind it is cell-based. Particulars: 20 μM, hypoxic conditions. The method, then: Frozen tissue/cell cultures of liver or heart were pulverized under liquid nitrogen and placed in a homogenization buffer ([…] phosphate buffer, […] sucrose, […] EDTA, […] phenylmethylsulfonyl fluoride (PMSF), and 0.1% vol/vol tergitol, pH 7.5). Myocytes from cell cultures were homogenized in lysis buffer.
Homogenates were centrifuged at 12K rpm for 10 minutes at 4° C., the supernatant was isolated, and protein levels were visualized by immunoblotting with antibodies. Briefly, proteins (60 μg/sample) were separated using SDS-PAGE gel (12%-15%) under denaturing conditions and electro-transferred (blotted) onto nitrocellulose (Bio-Rad) for 1 hour at 100 V. Membranes were blocked with 5% nonfat milk in Tris-buffered saline with 0.1% Tween® 20 (TBST) for 1 hour at room temperature. Primary antibodies were used at a 1:200-1:1000 concentration in TBST with 5% nonfat milk overnight at 4° C. Immunodetection of β-actin/GPDH was performed as an internal control. Dye 800/680 secondary antibodies were added at a concentration of 1:15000 for 1 hour at room temperature (LI-COR® Biosciences, NE, USA). Detection was carried out with LI-CORE® Odyssey® imaging system. Quantification of signals was carried out with the Odyssey® program. […]
In general terms: A western blot detects proteins with antibodies after separation by electrophoresis.

Residues, ends and D or L forms follow the SMILES beside them.

Consider `CCCCCCCCNc1nc(=O)n(Cc2ccccc2)cc1C` [PM6, 1-benzyl-5-methyl-4-(octylamino)pyrimidin-2(1H)-one], for which the “inhibition of TLR4 mRNA production” value in the assay on TLR4 mRNA is given as roughly 3.3 fold. In addition, the “decrease of TLR4 protein expression” value on TLR4 was 7.6 fold.

As to `CC[C@H](C)[C@H](NC(C)=O)C(=O)N[C@H](C(=O)N[C@@H](Cc1ccccc1)C(=O)N[C@@H](C)C(N)=O)C(C)C` [SEQ ID NO:1, (2S,3S)-2-acetamido-N-((S)-1-(((S)-1-(((S)-1-amino-1-oxopropan-2-yl)amino)-1-oxo-3-phenylpropan-2-yl)amino)-3-methyl-1-oxobutan-2-yl)-3-methylpentanamide] (Ac-IVFA-NH2), in the assay on TLR4 mRNA, the “TLR4 mRNA expression level” value is on record as “significantly decreased”. For the same molecule, the “decrease of TLR4 protein expression relative to PM6” value at TLR4 (positive control) was “same extent”.
